“Also recorded” adds a separate entry of the source.
Assays:
HCLE cells = assay: In vitro scratch assay, HCLE cells; format: cell-based, Human
Experimental: Cell Culture. Human corneal limbal epithelial (HCLE) cells were cultured in keratinocyte-serum free medium (K-SFM; ThermoScientific, Waltham, Mass.) supplemented with 0.2 ng/mL rhEGF (ThermoScientific, Waltham, Mass.), bovine pituitary extract (ThermoScientific, Waltham, Mass.) and 1% Amphotericin B (ThermoScientific, Waltham, Mass.). Standard cell culture conditions (37° C., 5% CO2, >95% humidity) were used during routine passages. The culture medium was replaced every 48 hours after seeding.
In Vitro Scratch Assay. HCE, HCLE, HELA and MCF-7 cells were cultured in a 24-well plate at 2.5×10^5 (cells/well) seeding density, and were grown to confluence on a 24-well plate. Subsequently, a straight-line scratch mark was made with a sterile P200 pipette tip. […] The wound area at each time-point was measured using Image J software (Image J 1.47v, NIH, Thornwood, Bethesda, Md.). Relative wound closure was calculated by dividing the closure of the treated wound by that of the untreated wound. […]
A cell sprouting assay using HCE cells embedded as a spot in growth factor reduced solubilized basement membrane sold under the tradename MATRIGEL® (Corning Life Sciences, Tewksbury, Mass.) was used to determine if HST5 could promote epithelial cell migration. […] Time-lapse microscopy was performed and wound areas were analyzed at different time points. […]

[1] = test system: epithelial cell migration; assay: In vitro scratch assay, truncation and scrambled peptide series (FIG. 1; cell line not given); format: cell-based; conditions: 80 μM; FIG. 1; vs untreated control
Experimental: Peptides were tested for efficacy in accelerating scratch closure rates. Negative controls included untreated and multiple scrambled peptide (SP) controls. All peptides were tested at 80 μM concentration. All experiments were performed in triplicate with three technical replicates for each experiment. Statistical significance was determined by one-way ANOYA with Dunnett's post-hoc test. *p<0.05; **p<0.01; ***p<0.001. Relative closure=(% closure of treated sample)/(% closure of Untreated control).
In Vitro Scratch Assay. HCE, HCLE, HELA and MCF-7 cells were cultured in a 24-well plate at 2.5×10^5 (cells/well) seeding density, and were grown to confluence on a 24-well plate. Subsequently, a straight-line scratch mark was made with a sterile P200 pipette tip. The cells were then washed twice with phosphate-buffered saline (PBS) to remove cellular debris. Wounded areas were then treated with the peptides provided in Table 5 at various concentrations in standard medium with reduced serum conditions (0.5% FBS in MEM medium (HCE), growth factor-free K-SFM media (HCLE), 1% FBS in DMEM medium (HeLa) and 0.5% FBS in RPMI 1640 medium (MCF-7)). Scratches were photographed microscopically at 4× magnification (Image Express Micro, Molecular Devices, San Jose, Calif.) every hour over the course of the experiment. The wound area at each time-point was measured using Image J software (Image J 1.47v, NIH, Thornwood, Bethesda, Md.). Relative wound closure was calculated by dividing the closure of the treated wound by that of the untreated wound. For all the experiments including truncated histatin-5, a final concentration of 80 μM was used. PD98059 (Calbiochem, San Diego, Calif.) at final concentration of 50 μM was used as a specific inhibitor of MEK. PD98059 was added to cell cultures at the same time as histatin peptides.
To identify the residues of Hst5 required for epithelial cell migration, serial truncation experiments were performed, progressively deleting residues in Hst5. […] All peptides were tested at 80 μM. […] Thus, the SHRGY (SEQ ID NO:2) sequence is necessary and sufficient to promote epithelial migration rates in in vitro scratch assays.

pERK1/2 = assay: Western blot for pERK1/2 after wounding; format: cell-based; conditions: wounded cells, compared with wounding alone
Experimental: Western Blot. Western blot was performed following standard methods. Protein lysate (20 μg) was boiled in NuPAGE™ LDS sample buffer (Invitrogen, Carlsbad, Calif.) for 10 minutes and then subjected to electrophoresis on 12% NuPAGE™ Bis-Tris gels (Invitrogen, Carlsbad, Calif.), followed by transfer to nitrocellulose membranes (Amersham Protran, GE Healthcare, Pittsburgh, Pa.). Membranes were then blocked with Tris-buffered saline containing 3% nonfat dry milk for 1 hour and incubated with primary antibody against pERK1/2 (Cell Signaling, Danver, Mass.) (1:1000) overnight at 4° C. After washing in 0.05% Tris-buffered saline containing 0.05% polysorbate 20, membranes were then incubated for 1 hour with goat anti-rabbit-HRP (BD Biosciences, San Jose, Calif.) (1:2000) as the secondary antibody. The membranes were developed using X-ray film and ECL Pro solution (PerkinElmer, Waltham, Mass.). Beta-actin was used as an internal control.
The level of activation/phosphorylation of ERK with and without wounding and with and without Hst5 application were investigated to determine whether the cellular signaling pathways underpinning the pro-migratory effects of Hst5 were similar to those of Hst1 in other epithelial cell types. Wounding causes an increased in phosphorylated form of ERK1/2 (p-ERK1/2). […]

p-ERK1/2 = assay: Immunofluorescence imaging of p-ERK1/2 in scratched HCE monolayer; format: cell-based, Human; conditions: 80 μM, 45 minutes
Experimental: Immunofluorescence Imaging. HCE cells were seeded in 8-well chamber slide at 9×10^4 (cells/well) seeding density, and allowed to incubate to form a confluent monolayer. Subsequently, a straight-line scratch mark was made with a sterile P10 pipette tip. The cells were then washed with media to remove cellular debris. Wounded areas were subsequently left untreated or treated with Hst5, SP1 or SP2 at 80 μM concentrations in MEM media with 0.5% FBS for 45 minutes. Cells were then fixed with 4% paraformaldehyde for 30 minutes and permeabilized with 0.1% Triton X-100 for 5 minutes. After washing with PBS, cells were incubated at room temperature for 30 minutes with 5% bovine serum albumin (BSA) and 5% normal goat serum in PBS. Cells were subsequently incubated with primary antibodies diluted in 1% BSA against p-ERK1/2 (1:200) (Cell Signaling, Danver, Mass.) at 4° C. for 16 hours. After three washings with PBS, cells were incubated with fluorescein isothiocyanate-conjugated sheep anti-rabbit IgG antibody (BD Biosciences, San Jose, Calif.) (1:500) diluted in 1% BSA at room temperature for 60 minutes. After extensive washing with PBS, the cells were then stained with 4′,6-diamidino-2-phenylindole (DAPI; (Roche, Mannheim, GE) for 2 minutes for nuclear staining. The cells were mounted in Fluoro gel with Tris buffer (Electron Microscopy Sciences, Hattfield, Pa.) and observed under a confocal microscope (Zeiss LSM 710 Confocal Microscope, Oberkochen, Germany) using a 10× objective.
The level of activation/phosphorylation of ERK with and without wounding and with and without Hst5 application were investigated to determine whether the cellular signaling pathways underpinning the pro-migratory effects of Hst5 were similar to those of Hst1 in other epithelial cell types. Wounding causes an increased in phosphorylated form of ERK1/2 (p-ERK1/2). Immunolocalization was used to determine whether Hst5 application to a scratched sheet of epithelium would affect pERK1/2 levels.

For DSHAKRHHGYKRKFHEKHHSHRGY [Hst5], the “rates of in vitro scratch assay closure” value (HCLE cells; 20, 50, 80 and 100 μM, compared with untreated control) was “dose-dependent increase in rates of in vitro scratch assay closure”, the “concentration of most significant increase in scratch closure rates” value (HCLE cells; tested at 20, 50, 80 and 100 μM) was 50 µM and the “scratch (wound) closure rates, relative closure” value [1] was “significant increases in scratch closure rates”. For the same sequence, the “pERK1/2 levels (Western blot)” value (pERK1/2) was “further increased” and the “pERK1/2 immunolocalization / signal intensity” value (p-ERK1/2) was “increased signal intensity of phosphorylated ERK1/2; also recorded: elevated immunolocalization of pERK1/2”.

From patent US20230027620A1, “PENTAPEPTIDE AND METHODS OF USE THEREOF” (THE BOARD OF TRUSTEES OF THE UNIVERSITY OF ILLINOIS, priority 2019, published 2023)
